According to US20060063755A1, “Loxapine analogs and methods of use thereof” (priority 2004, published 2006):
Several values for one entry are separate records, joined by “and”; a condition that tells them apart may be missing. Equal entries are not always repeated.

Columns and labels:
hERG channel = hERG channel (Homo sapiens, UniProt Q12809); assay: hERG channel current block, whole cell recording in HEK293 cells; type: cell-based; conditions: HEK293 cells expressing hERG
Method: Other in vitro selection criteria for loxapine analogs of the invention includes hERG binding.
(Brown and Rampe (2000)).
In one embodiment of the HERG assay, the positive control (i.e., reference compound) is terfenadine (Sigma, St. Louis Mo.), which has been shown, at a concentration of 60 nM, to block HERG current by approximately 75%. Test compounds are delivered in HEPES-buffered physiological saline (HB-PS)+0.1% dimethyl sulfoxide (DMSO).
Clin. Exp. Allergy 29 Suppl 3, 174-181.
If the final DMSO concentration must be greater than 0.3%, to reach a specified test article concentration, a separate vehicle control test with an n>2 was performed at the highest final DMSO concentration.
Each cell acted as its own control. […] One concentration of the positive control article (60 nM terfenadine) was applied to two cells (n≧2).

H1 histamine receptor = biological target: T1, H1 histamine receptor (Bos taurus, UniProt P30546); assay: H1 competitive binding assay, [3H]pyrilamine, bovine cerebellar membranes; conditions: bovine cerebellar membrane
T1 construct: the receptors were obtained from bovine cerebellar membrane tissue; from tissue; host or cells: bovine cerebellar membranes
T1 sequence (P30546 whole entry): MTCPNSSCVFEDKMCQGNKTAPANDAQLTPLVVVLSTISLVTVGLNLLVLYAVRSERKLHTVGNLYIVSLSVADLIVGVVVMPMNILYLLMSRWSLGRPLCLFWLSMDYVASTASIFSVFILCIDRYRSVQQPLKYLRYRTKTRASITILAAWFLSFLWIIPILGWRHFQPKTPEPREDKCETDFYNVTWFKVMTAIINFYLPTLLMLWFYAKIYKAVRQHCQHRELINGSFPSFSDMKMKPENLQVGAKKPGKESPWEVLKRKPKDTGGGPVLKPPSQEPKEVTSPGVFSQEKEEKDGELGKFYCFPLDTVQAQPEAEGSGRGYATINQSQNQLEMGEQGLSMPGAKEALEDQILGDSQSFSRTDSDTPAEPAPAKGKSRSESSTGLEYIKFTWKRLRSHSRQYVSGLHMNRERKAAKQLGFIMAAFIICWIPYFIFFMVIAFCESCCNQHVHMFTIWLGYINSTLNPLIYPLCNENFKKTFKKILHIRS

M1 muscarinic receptor = biological target: T2, M1 muscarinic receptor (Homo sapiens, UniProt P11229); assay: M1 binding assay, [3H]-scopolamine N-methyl chloride, CHO cells; conditions: human recombinant
T2 construct: purchased PerkinElmer, Inc., Wellesley, Mass; host or cells: CHO cells
T2 sequence (P11229 1-460): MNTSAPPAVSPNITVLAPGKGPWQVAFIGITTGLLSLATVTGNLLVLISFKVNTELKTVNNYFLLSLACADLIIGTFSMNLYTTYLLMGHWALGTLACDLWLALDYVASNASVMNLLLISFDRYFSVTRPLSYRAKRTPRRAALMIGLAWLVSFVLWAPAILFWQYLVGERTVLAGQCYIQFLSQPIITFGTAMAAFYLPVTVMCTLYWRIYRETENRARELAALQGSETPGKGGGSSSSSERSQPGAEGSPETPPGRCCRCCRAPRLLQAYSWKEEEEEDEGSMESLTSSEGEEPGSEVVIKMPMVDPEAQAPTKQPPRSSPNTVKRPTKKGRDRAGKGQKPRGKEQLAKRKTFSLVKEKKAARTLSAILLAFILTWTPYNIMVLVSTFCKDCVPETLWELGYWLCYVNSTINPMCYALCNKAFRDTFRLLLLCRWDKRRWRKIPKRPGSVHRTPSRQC

M2 muscarinic receptor = biological target: T3, M2 muscarinic receptor (Homo sapiens, UniProt P08172); assay: M2 binding assay, [3H]-scopolamine N-methyl chloride, CHO cells; conditions: human recombinant
T3 construct: purchased PerkinElmer, Inc., Wellesley, Mass; host or cells: CHO cells
T3 sequence (P08172 1-466): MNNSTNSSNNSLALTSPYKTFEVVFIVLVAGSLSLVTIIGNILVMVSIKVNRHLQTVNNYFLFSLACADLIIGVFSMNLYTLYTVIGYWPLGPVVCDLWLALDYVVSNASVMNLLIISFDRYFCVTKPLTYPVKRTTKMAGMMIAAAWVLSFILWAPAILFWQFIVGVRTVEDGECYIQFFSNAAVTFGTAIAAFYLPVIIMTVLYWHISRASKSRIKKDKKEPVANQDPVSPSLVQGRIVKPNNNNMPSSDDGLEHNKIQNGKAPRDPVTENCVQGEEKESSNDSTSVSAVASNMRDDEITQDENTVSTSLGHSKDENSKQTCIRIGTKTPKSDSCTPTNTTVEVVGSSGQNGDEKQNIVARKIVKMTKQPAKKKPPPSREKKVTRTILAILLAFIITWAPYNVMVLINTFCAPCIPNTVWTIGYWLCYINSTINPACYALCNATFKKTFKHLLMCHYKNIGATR

M3 muscarinic receptor = biological target: T4, M3 muscarinic receptor (Homo sapiens, UniProt P20309); assay: M3 binding assay, [3H]-scopolamine N-methyl chloride, CHO cells; conditions: human recombinant
T4 construct: purchased PerkinElmer, Inc., Wellesley, Mass; host or cells: CHO cells
T4 sequence (P20309 whole entry): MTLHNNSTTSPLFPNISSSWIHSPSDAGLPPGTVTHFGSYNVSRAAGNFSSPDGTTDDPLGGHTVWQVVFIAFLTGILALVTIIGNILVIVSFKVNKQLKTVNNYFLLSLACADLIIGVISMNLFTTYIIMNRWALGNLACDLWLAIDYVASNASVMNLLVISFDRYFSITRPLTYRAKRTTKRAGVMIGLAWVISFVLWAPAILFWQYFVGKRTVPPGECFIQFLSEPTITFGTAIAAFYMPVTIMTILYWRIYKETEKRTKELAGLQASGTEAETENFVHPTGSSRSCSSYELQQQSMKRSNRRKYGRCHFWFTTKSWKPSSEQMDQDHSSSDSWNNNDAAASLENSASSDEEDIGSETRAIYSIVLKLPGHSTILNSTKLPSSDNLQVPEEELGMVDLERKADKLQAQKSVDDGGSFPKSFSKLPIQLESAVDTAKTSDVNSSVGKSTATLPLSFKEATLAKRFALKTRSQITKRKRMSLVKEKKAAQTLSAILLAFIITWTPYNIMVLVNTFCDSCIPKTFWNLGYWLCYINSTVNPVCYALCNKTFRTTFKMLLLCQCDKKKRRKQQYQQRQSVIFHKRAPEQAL

alpha 1 receptors = assay: Alpha 1 receptor binding assay; conditions: read-out: Ki Alpha1
Method: (§1) Binding assays were performed using the disclosed sleep-inducing agents and derivatives selected from those listed in Table 1 in competitive binding assays with known standards for the H1 histamine receptor, and the M1, M2, and M3 muscarinic receptors, alpha 1 and alpha 2 receptors, and D1 and D2 receptors.

alpha 2 receptors = assay: Alpha 2 receptor binding assay; conditions: read-out: Ki Alpha2
Method: as §1

Dopamine, D1 = Dopamine, D1 (Homo sapiens, UniProt P21728); assay: Dopamine D1 (human recombinant) binding assay
Sequence of Dopamine, D1 (P21728 whole entry): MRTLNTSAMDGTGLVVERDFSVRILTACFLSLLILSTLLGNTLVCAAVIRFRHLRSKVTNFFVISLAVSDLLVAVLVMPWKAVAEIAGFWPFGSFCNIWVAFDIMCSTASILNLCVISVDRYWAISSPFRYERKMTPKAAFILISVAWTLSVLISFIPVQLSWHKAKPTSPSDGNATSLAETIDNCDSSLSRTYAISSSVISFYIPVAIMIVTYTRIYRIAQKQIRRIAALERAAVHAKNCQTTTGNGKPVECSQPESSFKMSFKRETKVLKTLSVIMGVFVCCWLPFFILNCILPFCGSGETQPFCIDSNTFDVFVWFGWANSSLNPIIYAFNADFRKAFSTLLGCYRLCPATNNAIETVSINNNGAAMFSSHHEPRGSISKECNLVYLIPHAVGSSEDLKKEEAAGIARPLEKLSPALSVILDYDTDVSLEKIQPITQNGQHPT
Method: as §1
Dopamine, D1 (human recombinant) binding assay was performed according to published procedures. See, e.g., Jarvie, et al. J. Recept Res., 13(1-4): 573-90 (1993); and Billard, et al. Life Sciences, 35(18): 1885-93 (1984), with modifications

D2 receptors = D2 receptors (Homo sapiens, UniProt P14416); assay: Dopamine D2 binding assay (human)
Sequence of D2 receptors (P14416 whole entry): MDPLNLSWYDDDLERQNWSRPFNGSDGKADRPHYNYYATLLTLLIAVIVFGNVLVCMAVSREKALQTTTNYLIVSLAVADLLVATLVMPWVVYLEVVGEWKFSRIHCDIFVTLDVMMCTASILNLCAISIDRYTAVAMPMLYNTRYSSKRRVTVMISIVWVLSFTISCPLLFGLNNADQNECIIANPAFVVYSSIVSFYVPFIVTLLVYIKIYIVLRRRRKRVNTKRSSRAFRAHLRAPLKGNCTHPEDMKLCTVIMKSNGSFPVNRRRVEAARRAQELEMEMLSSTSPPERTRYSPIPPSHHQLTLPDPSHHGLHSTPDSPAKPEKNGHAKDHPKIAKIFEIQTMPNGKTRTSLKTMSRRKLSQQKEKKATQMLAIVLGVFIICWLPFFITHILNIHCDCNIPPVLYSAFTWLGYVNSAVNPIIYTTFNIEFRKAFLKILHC
Method: as §1, with “receptors. […]” for “receptors.”

Sequence of hERG channel (Q12809 whole entry): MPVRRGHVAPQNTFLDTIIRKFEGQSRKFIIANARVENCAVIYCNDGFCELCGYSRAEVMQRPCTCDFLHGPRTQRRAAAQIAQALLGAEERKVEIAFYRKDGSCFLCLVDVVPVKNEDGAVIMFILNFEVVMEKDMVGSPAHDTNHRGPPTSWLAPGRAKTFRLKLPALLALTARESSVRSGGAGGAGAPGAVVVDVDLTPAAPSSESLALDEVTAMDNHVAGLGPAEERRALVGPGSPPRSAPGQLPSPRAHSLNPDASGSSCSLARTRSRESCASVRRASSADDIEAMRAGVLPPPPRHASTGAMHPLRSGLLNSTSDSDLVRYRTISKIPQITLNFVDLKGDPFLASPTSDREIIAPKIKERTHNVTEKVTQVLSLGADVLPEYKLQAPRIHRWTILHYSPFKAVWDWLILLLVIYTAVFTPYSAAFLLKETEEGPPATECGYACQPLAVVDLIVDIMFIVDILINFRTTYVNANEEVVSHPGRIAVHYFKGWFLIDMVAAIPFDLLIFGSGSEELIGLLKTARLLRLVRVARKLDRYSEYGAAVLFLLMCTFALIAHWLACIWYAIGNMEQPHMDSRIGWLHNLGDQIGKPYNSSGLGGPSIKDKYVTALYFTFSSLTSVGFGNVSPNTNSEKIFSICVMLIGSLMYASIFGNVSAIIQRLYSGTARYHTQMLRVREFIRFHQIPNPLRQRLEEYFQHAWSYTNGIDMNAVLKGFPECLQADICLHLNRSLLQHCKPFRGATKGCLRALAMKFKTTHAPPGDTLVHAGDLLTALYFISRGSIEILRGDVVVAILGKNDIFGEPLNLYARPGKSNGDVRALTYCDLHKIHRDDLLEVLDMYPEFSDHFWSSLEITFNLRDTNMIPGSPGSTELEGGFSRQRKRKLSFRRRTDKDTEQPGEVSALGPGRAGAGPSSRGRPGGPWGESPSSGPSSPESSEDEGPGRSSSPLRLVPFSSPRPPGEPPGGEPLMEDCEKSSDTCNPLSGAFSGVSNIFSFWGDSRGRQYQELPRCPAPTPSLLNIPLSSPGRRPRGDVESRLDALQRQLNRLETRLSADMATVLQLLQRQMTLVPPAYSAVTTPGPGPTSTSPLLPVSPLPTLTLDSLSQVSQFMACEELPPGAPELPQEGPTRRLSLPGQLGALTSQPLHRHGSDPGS

Row | SMILES | hERG at 10 micromolar (% blocking of the hERG channel) (hERG channel) | Ki (H1 histamine receptor) | Ki (M1 muscarinic receptor) | Ki (M2 muscarinic receptor) | Ki (M3 muscarinic receptor) | Ki (alpha 1 receptors) | Ki (alpha 2 receptors) | Ki (Dopamine, D1) | Ki (D2 receptors)
1 | O=C(O)C1(CN2CCN(C3=Nc4ccccc4Oc4ccccc43)CC2)CC1 [Compound 2] | 19% | 0.0514 µM | > 10 µM | > 10 µM | > 10 µM | > 10 µM | > 10 µM | > 10 µM | > 10 µM
2 | CC(C)(CCN1CCN(C2=Nc3ccccc3Oc3ccccc32)CC1)C(=O)O [Compound 3] | 3.8% | 0.00733 µM | > 10 µM | > 10 µM | > 10 µM | > 10 µM | > 10 µM | 4.92 µM | 1.19 µM
3 | CC(C)(CN1CCN(C2=Nc3ccccc3Oc3ccc(Cl)cc32)CC1)C(=O)O [Compound 5] | 36% | 0.0239 µM | > 10 µM | > 10 µM | > 10 µM | 3.02 µM | > 10 µM | 4.52 µM | 1.61 µM
4 | CC(C)(CCN1CCN(C2=Nc3ccccc3Oc3ccc(Cl)cc32)CC1)C(=O)O [Compound 6] | 27% | 0.0138 µM | – | – | – | 2.73 µM | > 10 µM | 7.17 µM | 0.0961 µM
5 | O=C(O)C1(CN2CCN(C3=Nc4ccccc4Oc4ccc(Cl)cc43)CC2)CC1 [Compound 7] | 42.8% | 0.217 µM | > 10 µM | > 10 µM | > 10 µM | > 10 µM | > 10 µM | 1.73 µM | 0.222 µM
6 | CC(C)(CN1CCN(C2=Nc3ccccc3Oc3ccc(Br)cc32)CC1)C(=O)O [Compound 8] | 49% | 0.0117 µM | > 10 µM | > 10 µM | > 10 µM | > 10 µM | > 10 µM | 3.35 µM | 0.434 µM
7 | O=C(O)C1(CN2CCN(C3=Nc4ccccc4Oc4ccc(Br)cc43)CC2)CC1 [Compound 9] | 59% | 0.036 µM | > 10 µM | > 10 µM | > 10 µM | > 10 µM | > 10 µM | 1.12 µM | 0.0533 µM
8 | Cc1ccc2c(c1)C(N1CCN(CC(C)(C)C(=O)O)CC1)=Nc1ccccc1O2 [Compound 10] | 14% | 0.0396 µM | > 10 µM | > 10 µM | > 10 µM | > 10 µM | > 10 µM | 3.16 µM | 1.67 µM
9 | COc1ccc2c(c1)C(N1CCN(CC(C)(C)C(=O)O)CC1)=Nc1ccccc1O2 [Compound 12] | 7.20% | 0.137 µM | > 10 µM | > 10 µM | > 10 µM | > 10 µM | > 10 µM | 5.22 µM | 1.24 µM
10 | CC(C)(CN1CCN(C2=Nc3cc(Br)ccc3Oc3ccccc32)CC1)C(=O)O [Compound 17] | 30.10% | 0.012 µM | > 10 µM | > 10 µM | > 10 µM | 1.99 µM | – | 3.45 µM | 0.883 µM
11 | Cc1ccc2c(c1)Oc1ccc(C)cc1C(N1CCN(CC(C)(C)C(=O)O)CC1)=N2 [Compound 31] | 3.80% | 0.239 µM and 0.337 µM and 0.244 µM | > 10 µM | – | > 10 µM | > 10 µM | > 10 µM | 0.873 µM | 2.2 µM
12 | COc1ccc2c(c1)Oc1ccc(OC)cc1C(N1CCN(CC(C)(C)C(=O)O)CC1)=N2 [Compound 35] | 0.10% | – | > 10 µM | – | > 10 µM | > 10 µM | > 10 µM | > 10 µM | > 10 µM
13 | COc1ccc2c(c1)N=C(N1CCN(CC(C)(C)C(=O)O)CC1)c1ccc(OC)cc1O2 [Compound 42] | 5.80% | 1.12 µM | > 10 µM | – | > 10 µM | > 10 µM | > 10 µM | > 10 µM | > 10 µM
14 | Cc1ccc2c(c1)Oc1ccc(Br)cc1N=C2N1CCN(CC(C)(C)C(=O)O)CC1 [Compound 44] | 65.90% | 0.0414 µM | > 10 µM | – | > 10 µM | > 10 µM | > 10 µM | – | –
15 | Cc1ccc2c(c1)Oc1ccccc1N=C2N1CCN(CC(C)(C)C(=O)O)CC1 [Compound 46] | 20.40% | 0.0188 µM | > 10 µM | – | > 10 µM | > 10 µM | > 10 µM | > 10 µM | > 10 µM
16 | COc1ccc2c(c1)C(N1CCN(CC(C)(C)C(=O)O)CC1)=Nc1cc(F)ccc1O2 [Compound 48] | – | 0.0271 µM | > 10 µM | – | > 10 µM | > 10 µM | – | – | –
17 | Cc1ccc2c(c1)N=C(N1CCN(CC(C)(C)C(=O)O)CC1)c1ccc(C)cc1O2 [Compound 52] | 19.80% | 0.0554 µM | > 10 µM | > 10 µM | > 10 µM | > 10 µM | > 10 µM | – | > 10 µM
18 | COc1ccc2c(c1)C(N1CCN(CC(C)(C)C(=O)O)CC1)=Nc1cc(C)ccc1O2 [Compound 54] | 6.10% | 0.0404 µM | > 10 µM | > 10 µM | – | 1.21 µM | 5.82 µM | 4.97 µM | 1.08 µM
19 | COc1ccc2c(c1)N=C(N1CCN(CC(C)(C)C(=O)O)CC1)c1cc(C)ccc1O2 [Compound 56] | 0.30% | 0.117 µM | > 10 µM | – | > 10 µM | > 10 µM | > 10 µM | > 10 µM | > 10 µM
20 | COc1ccc2c(c1)C(N1CCN(CC(C)(C)C(=O)O)CC1)=Nc1ccc(C)cc1O2 [Compound 58] | 0.20% | – | > 10 µM | > 10 µM | > 10 µM | > 10 µM | > 10 µM | 2 µM | 4.03 µM
21 | COc1ccc2c(c1)C(N1CCN(CC(C)(C)C(=O)O)CC1)=Nc1ccc(Br)cc1O2 [Compound 72] | 10.90% | – | > 10 µM | – | > 10 µM | > 10 µM | – | 0.514 µM | 0.47 µM
22 | COc1ccc2c(c1)Oc1ccc(Br)cc1N=C2N1CCN(CC(C)(C)C(=O)O)CC1 [Compound 86] | 86.90% | – | – | – | – | – | – | – | –
